Assay results taken from patent US9164099B2, “Site-specific labeling of affinity tags in fusion proteins” (LIFE TECHNOLOGIES CORPORATION, priority 2002, dated 2015).

Assays:
Type in all cases: binding
[1] = system: poly-histidine affinity tag containing fusion protein (urate oxidase); assay: Gel detection of His-tagged urate oxidase with and without nickel ions (FIG. 1); conditions: staining solution without nickel ions compared with nickel ions
Experimental: FIG. 1B is a graph showing data from the same experiment performed without nickel ions.
Escherichia coli BL21 DE3 cells were transformed with plasmids containing either the human ATP synthase a subunit, the d subunit (including the leader sequence) or urate oxidase. Both proteins were constructed to have a poly-histidine affinity tag comprising six histidine residues, at the N-terminus and could be induced by isopropyl-beta-D-thiogalactoside (IPTG) addition to the medium. Pre-cultures (10 ml) were grown overnight in bacterial cell culture medium (LB medium) at 37° C. with constant shaking. The next day 100 μl was transferred to 50 ml of fresh LB medium containing 0.1 mg/ml ampicillin and grown until they reached an optical density at 595 nm (OD595) of 0.8. At this point 5 ml of culture was removed and immediately frozen on dry ice. To the rest of the culture 0.8 mM IPTG was added to induce the over-expression of the subunits. Samples (5 ml each) were taken after 10 min, 30 min, 1 h, 1.5 h, 2 h, 2.5 h, and 3 h and again frozen on dry ice. […]
The resulting green-fluorescent signal produced by compound 2 was visualized using the 473 nm excitation line of the SHG laser on the Fuji FLA-3000G Fluorescence Image Analyzer (Fuji Photo, Tokyo, Japan) with the 520 nm long pass filter or the 580 nm band pass filter, respectively. […]

[2] = target: T1, poly-histidine affinity tag containing fusion protein (Oligomycin sensitivity conferring protein; OSCP) (Homo sapiens, UniProt P48047); assay: Gel detection of His-tagged OSCP followed by SYPRO Ruby total protein stain (FIG. 2, 3); conditions: staining solution containing nickel ions; compared with SYPRO Ruby total protein stain
T1 construct: poly-histidine; made in house
T1 sequence (P48047 24-213): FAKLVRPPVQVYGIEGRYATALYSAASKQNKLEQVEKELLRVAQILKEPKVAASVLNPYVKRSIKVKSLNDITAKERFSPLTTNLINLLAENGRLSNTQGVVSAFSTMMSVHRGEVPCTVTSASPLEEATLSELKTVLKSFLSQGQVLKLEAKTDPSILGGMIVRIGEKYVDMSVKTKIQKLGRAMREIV
Description: FIG. 2: FIG. 2A is a graph showing the detection of a poly-histidine affinity tag containing fusion protein (Oligomycin sensitivity conferring protein; OSCP) labeled with Compound 2 in a staining solution containing nickel ions followed by the detection of (shown in FIG. 2B) total protein using the total protein stain SYPRO® Ruby.
FIG. 3: FIG. 3A is a graph showing the detection of a poly-histidine affinity tag containing fusion protein (Oligomycin sensitivity conferring protein; OSCP) labeled with Compound 15 in a staining solution containing nickel ions followed by the detection of (shown in FIG. 3B) total protein using the total protein stain SYPRO® Ruby.
Following separation of the proteins on a SDS-polyacrylamide gel, the gels were fixed for 20 minutes in 100 ml of 50% ethanol/7% acetic acid and then fixed overnight in 100 ml of fresh fixative solution to ensure complete elimination of SDS. Gels were next washed 3 times for 20 minutes each in deionized water. The gels were then incubated in a staining solution containing 10 μM compound 1 or 2 μM compound 2; 100 μM NiCl2; 50 mM PIPES at pH 6.5 for 45-90 minutes in a total volume of 25 ml. Afterwards, the gels were washed 2 to 4 times for 20 minutes each in deionized water. In order to ensure that the optimal signal was documented, gels were imaged after the second and fourth wash. […]

[3] = system: oligohistidine-tagged fusion proteins (the a subunit of Escherichia coli ATPase and porin); assay: Detection of poly-histidine affinity tag fusion proteins on a microarray; conditions: 10 μM compound, 50 mM PIPES pH 6.5
Experimental: Purified oligohistidine-tagged fusion proteins (the a subunit of Escherichia coli ATPase and porin), as well as control proteins (bovine serum albumin and ovalbumin) are arrayed from a source plate (384 well plate) concentration of 0.468 μg/ml-0.240 mg/ml in water, onto HydroGel coated slides (Perkin Elmer), using the BioChip Arrayer™ (Perkin Elmer). The BioChip Arrayer™ utilizes a PiezoTip™ Dispenser consisting of 4 glass capillaries. Proteins are dispensed from the PiezoTip™ by droplets […] in volume to create array spots ˜200 microns in diameter with a 500 micron horizontal and vertical pitch (pitch=center to center spacing of spots). Proteins are arrayed in duplicate in four rows, with 10 dilution points. The resulting concentration range of the array is 166.5 pg/spot-0.325 pg/spot. For detection of oligohistine-tagged proteins, slides are incubated for 45 minutes on a rotator in 50% ethanol/7% acetic acid and then fixed overnight in fresh fixative solution to ensure complete elimination of SDS. Microarrays are next washed 3 times for 20 minutes each in deionized water. The microarrays are then incubated in a staining solution containing 10 μM Compound 2 or Compound 15; 50 mM PIPES at pH 6.5 for 45-90 minutes. Afterwards, the microarrays are washed 2 to 4 times for 20 minutes each in deionized water. […]

## 4,4-difluoro-4-bora-3a,4a-diaza-s-indacene-3,5-bis((6-(propionyl)amino-2-bis(carboxymethyl)amino)hexanoic acid), hexatriethylammonium salt [Compound 2]
[1]
  sensitivity for the poly-histidine affinity tag: increased sensitivity
[2]
  selectivity for the poly-histidine affinity tag: selective
[3]
  signal on control proteins (bovine serum albumin and ovalbumin): little or no signal
